Columns and labels:
Rat gliosarcoma 9L cells = assay: Dark cytotoxicity assay, 9L cells; format: cell-based; conditions: 24 hour exposure, read-out: IC50 (dark toxicity)
Procedure: (§1) Human glioblastoma U373 MG, hamster V79 fibroblast, and mouse melanoma B16 cells were obtained from the American Type Culture Collection. Rat gliosarcoma cells were kindly provided by the University of California at San Francisco Brain Tumor Research Group. All cells were maintained in log phase monolayer cultures with RPMI 1640 supplemented with 10% fetal bovine serum and 2 mM glutamine.
(§2) Cells were seeded in 96-well culture plates, and were allowed to settle and attach for 24-48 hours. Triplicate wells were then exposed to twofold serial dilutions of test compounds at concentrations up to 250 μM. Compounds 4, 6, 10, and 12 in crystalline form were carefully weighed and dissolved in 100% DMSO to prepare stock solutions. Subsequent dilutions were performed directly in the culture medium just before the medium was administered to cells. After short-term (2 hour) or long-term (24 hour) exposure, cells were washed, and the wells were refilled with fresh culture medium. For dark toxicity trials, cells were allowed to proliferate for an additional 48-72 hours. For phototoxicity trials, washed cells were irradiated for 10 minutes with broad spectrum (600-700 nm) red light, and were then returned to an incubator for 48-72 hours.

[1] = test system: Human glioblastoma U373 MG cells; assay: Dark cytotoxicity assay, U-373 MG cells; format: cell-based; conditions: 24 hour exposure, read-out: IC50 (dark toxicity)
Procedure: as §1, §2

[2] = test system: 9L, U-373MG and B16 cells; assay: Concentration-dependent cellular uptake; format: cell-based; conditions: cells exposed to 1, 5, and 10 μM for 24 hours
Procedure: The concentration-dependent uptake of compounds 4, 6, 10, and 12 was investigated in cells exposed to 1, 5, and 10 μM concentrations of the porphyrins for 24 hours. The concentration of intracellular-bound porphyrin was determined by chemical extraction of washed cell monolayers, followed by spectrophotometric or ICP-MS determinations, or both. The uptake values for 9L and U-373MG cells were very similar, and exceeded that for B16 cells. The porphyrin accumulation was invariably observed to increase with increasing concentration of the compound.

HIV-1 strain IIIB = assay: In vitro virucidal activity against HIV-1 strain IIIB (assay of A. Vzorov et al. 2002); format: cell-based; conditions: 0% = no infective particles remained
Procedure: (§3) Porphyrins 16, 31, and 33 have been assayed for in vitro virucidal activity against HIV-1 using the assay of A. Vzorov et al. (2002) (full citation below). The assay was conducted on two different strains of HIV-1, strain IIIB, and strain 89.6. The figures in the table denote the percentage of viral particles that were still infective following treatment.

HIV-1 strain 89.6 = assay: In vitro virucidal activity against HIV-1 strain 89.6 (assay of A. Vzorov et al. 2002); format: cell-based; conditions: 0% = no infective particles remained
Procedure: as §3

[3] = test system: supercoiled DNA substrate φX174; assay: Supercoiled DNA nicking assay (DNA photodamage); format: biochemical; conditions: for Form II (nicked) DNA produced in the dark: samples kept in the dark; for phosphodiester breaks in supercoiled DNA, light-exposed versus dark: yellow light 100 W bulb, 30 cm, 30 minutes
Text: In the first test to determine the ability of a porphyrin to induce DNA photodamage, we used a supercoiled DNA substrate that migrates rapidly as a single band in agarose gels, but migrates much more slowly if the DNA sustains as little as a single phosphodiester break or nick. Using this technique, we examined the ability of porphyrins 16, 31 and 33 to nick the supercoiled DNA substrate φX174. The porphyrin—DNA mixtures were shielded from light until just prior to the nicking assay, at which time half of each sample remained in the dark, while the other half was exposed to yellow light from a 100 W bulb at a distance of 30 cm for 30 minutes, at room temperature. The samples were then incubated for 30 min at room temperature in the dark, and the products of the reaction were then electrophoresed on a 1% agarose gel and stained.

[4] = test system: human leukemia K562 cells; assay: Alkaline Comet assay; format: cell-based; conditions: yellow light 100 W bulb 5 minutes, versus dark and light-only controls
Procedure: The second test, the alkaline Comet assay, is a sensitive technique for determining the presence of single- and double-strand breaks and other DNA lesions such as baseless sites. Human K562 cells were incubated with porphyrins 16, 31, and 33, and were then either exposed to a source of yellow light from a 100 W bulb for 5 minutes at room temperature or kept in the dark. The cells were then immobilized on agarose slides, lysed, exposed to alkaline buffer, electrophoresed, and stained for visualization.

HIV-1 = conditions: preliminary experiments
[5] = mouse, in vivo
[6] = test system: V79 hamster fibroblast cells
Text: We have also determined the cytotoxicity of porphyrins 4, 16, 18, and 31 in V79 hamster fibroblast cells using a clonogenic assay.

[7] = test system: 9L, U-373 MG and B16 cells; assay: Phototoxicity assay (red light irradiation); format: cell-based; conditions: irradiation with broad spectrum (600-700 nm) red light 10 minutes
Procedure: as §1, §2

Substance	IC50 (Rat gliosarcoma 9L cells)	IC50 [1]	uptake relative to the corresponding Zn(II) complexes [2]	percentage of viral particles that were still infective following treatment (HIV-1 strain IIIB)	percentage of viral particles that were still infective following treatment (HIV-1 strain 89.6)	Form II (nicked) DNA produced in the dark [3]	phosphodiester breaks in supercoiled DNA, light-exposed versus dark [3]	DNA damage (Comet tail) after light exposure [4]	activity against HIV-1 in vitro (HIV-1)	maximum tolerated dose [5]	CS50 [6]	IC50 ([7]; 2-hour exposure)	IC50 ([7]; 24-hour exposure)
meso-tetra[3-(1-methyl-nido-carboranyl)methylphenyl]porphyrin tetrapotassium salt [Compound 10]	~150 µM	~150 µM	approximately four times greater										
Zn(II)-5,15-bis[bis-3,5-(1-methyl-nido-carboranyl)methylphenyl]porphyrin tetrapotassium salt [Compound 33]				0%	4%	little Form II DNA	significantly more effective	light-activated DNA damage	high levels of activity	exceeded 300 mg per kg of body weight			
Zn(II)-meso-tetra[4-(1-methyl-nido-carboranyl)methylphenyl]porphyrin tetrapotassium salt [Compound 6]										exceeded 300 mg per kg of body weight			
5,15-bis[bis-3,5-(1-methyl-nido-carboranyl)methylphenyl]porphyrin tetrapotassium salt [Compound 31]				9%	2%	little Form II DNA	significantly more effective	light-activated DNA damage	high levels of activity	exceeded 300 mg per kg of body weight	> 300 µM		
Zn(II)-meso-tetra[4-(nido-carboranyl)phenyl]porphyrin tetrapotassium salt [Compound 18]											> 300 µM		
meso-tetra[4-(1-methyl-nido-arboranyl)methylphenyl]porphyrin tetrapotassium salt [Compound 4]	~150 µM	~150 µM	approximately four times greater							exceeded 300 mg per kg of body weight	> 300 µM	~50 µM	~1.5 µM
meso-tetra[4-(nido-carboranyl)phenyl]porphyrin tetrapotassium salt [Compound 16]				4%	0%	little Form II DNA	significantly more effective	light-activated DNA damage	high levels of activity	exceeded 300 mg per kg of body weight	> 300 µM		

Source: patent publication US20040116385A1, “Treating and preventing viral infections with porphyrin-based compounds” (priority 2002, published 2004)
